Data: patent US8623377B2, “Joint-homing peptides and uses thereof” (University of Maryland, Baltimore, priority 2011, dated 2014)

What was measured:
[1] = test system: CD31-expressing endothelial cells from an arthritic rat joint; test: Binding of fluorescein-labeled peptide to CD31-expressing endothelial cells from arthritic rat joint; format: cell-based
Procedure: FIG. 2A: Binding of specific phage encoding the peptide NQR or ADK to the vascular endothelium was visualized by immunohistochemical examination of the hind paw section of the rthritic rats using the anti-T7 phage antibody. The binding of phage was tested in the presence or absence of the corresponding synthetic peptide. BV, blood vessel, L, lumen. FIG. 2B: Arthritic rats were injected with specific phage (ADK phage, left; NQR phage, center; or RGD phage, right) in the presence or absence of the corresponding synthetic peptide, and the titer of the phage recovered from the synovial tissue was assessed. *P<0.01. FIG. 2C: CD31-expressing endothelial cells were isolated from arthritic rat joints (upper) or the liver (lower) and stained with DAPI (blue), FITC-labeled peptide NQR (green), or Alexa Fluor 594-labeled anti-rat CD31 antibody (red). Also shown is the staining overlay (merge) of green and red (yellow). The inset is an enlarged view of a single cell; original magnification, 20×. FIG. 2D: LPS-stimulated HUVECs were stained with DAPI and FITC-labeled peptide NQR and observed under a fluorescence microscope, original magnification, 100×. […]

Akt = test: VEGF-induced signaling in HUVECs, Western blot p-Akt; format: cell-based, human; details: peptide 10, 50, 100 μg/mL 1 h, then VEGF 10 ng/mL 20 min
Text: FIG. 6A: HUVECs were stimulated with VEGF and treated with the indicated concentrations of peptides. Phosphorylated ERK1/2 and Akt, as well as total ERK1/2 and Akt, were detected by Western blot analysis. FIG. 6B: Thereafter, p-ERK1/2 and p-Akt were quantified by densitometry, normalized to total ERK1/2 (left) and Akt (right), respectively, and compared with cells in serum-free medium. The results of a representative experiment from a set of three independent experiments are shown. *P<0.05, compared with the positive control.
HUVECs were grown in F-12K medium in the presence of endothelial cell growth supplement (ECGS) (BD Biosciences) and 15% FBS. Confluent cells were starved in basal medium (without ECGS and FBS) for 6 h. Then the cells were pretreated for 1 h with different concentrations (10, 50, and 100 μg/mL) of a peptide (NQR, ADK, or RGD) in fresh basal medium, followed by treatment with VEGF (10 ng/mL) for another 20 min. The conditional medium was discarded, and the cells were lysed using a lysis buffer containing protease inhibitors and phosphatase inhibitors. The cell lysate was then centrifuged, and the resulting supernatant was used for analysis of signaling molecules using specific antibodies to human pERK1/2, ERK1/2, pAkt, Akt, and GAPDH (Cell Signaling Technology) by Western blot analysis. The intensity of the bands in the gel was quantified by densitometry. The levels of p-ERK1/2 and p-Akt were normalized to total ERK1/2 and Akt, respectively, and compared with cells in serum-free medium.

[2] = test system: adjuvant arthritis in Lewis rats; test: Antiarthritic activity in the adjuvant arthritis (AA) model, arthritic score; format: in vivo, Lewis rat
Procedure: FIG. 3A: Group of arthritic Lewis rats (n=4 per group) were injected with a peptide (AD, NQR, or RGD) or PBS i.v. on the days indicated by the arrows either at the onset or just after the onset of arthritis. The its were monitored regularly for the disease severity, presented as “arthritic score”. […] The sections were graded for histopathological features associated with arthritis. B, bone; C, cartilage, JS, joint space; SIC, synovium-infiltrating cells.
The synthetic peptide corresponding to the selected phage-encoded peptide was diluted in PBS and injected i.v. into Lewis rats beginning either at the onset or just after the onset of arthritis after Mtb injection. The peptide was injected to rats on alternate days at a dose of 1 or 2 mg/kg body weight. A total of three or four injections were given to each rat. Control animals received an equal volume of PBS. All rats were graded regularly for clinical signs of arthritis (36). The hind paws of these rats were harvested and processed for histopathological examination.
AA was induced in Lewis rats by immunizing them with 1 mg/rat of heat-killed M. tuberculosis H37Ra (Mtb; Difco) in 200 μL of mineral oil (Sigma-Aldrich) via s.c. injection at the base of the tail. Beginning on day 7 after immunization, the rats were observed regularly for signs of arthritis in the paws. The severity of arthritis was evaluated based on erythema and swelling as described previously. The highest score for each paw was 4, and the total maximum score for each rat was 16. The course of AA in the Lewis rat involved the following phases: incubation (days 0-8), onset (days 9-11), peak (days 15-18), and recovery (days 21-27).

## CLDNQRPKC (Synthetic peptide homing to joint in an animal) [NQR peptide, joint-homing phage-derived synthetic peptide]
[1]; CD31-expressing endothelial cells, arthritic rat joint
  binding of fluorescein-labeled peptide to joint-derived endothelial cells: bound specifically to the joint-derived
[1]; joint-derived endothelial cells
  colocalization of peptide with CD31: colocalized with CD31
Akt
  effect on VEGF-induced pAkt: had no effect on pAkt
[2]; from day 15 to day 27 (FIG. 3A center)
  difference in arthritic score versus PBS/ADK: significant
[2]; from day 15 to day 27 (FIG. 3A right)
  difference in arthritic score versus PBS: significant
[2]; i.v. injection around the time of onset of arthritis, 1 or 2 mg/kg on alternate days
  suppression of the arthritic process: suppressed the arthritic process in a dose-dependent manner
[2]; injected just after the onset of AA
  down-modulation of arthritis: effective in down-modulating arthritis
